Consider 1 molecule from patent publication US9006185B2, “Use of cell-permeable peptide inhibitors of the JNK signal transduction pathway for the treatment of various diseases” (Xigen Inflammation Ltd., priority 2008, dated 2015).

In one data set the test system is murine T cells. Description: PMA & ionomycin-induced cytokine production in murine T cells. It counts as cell-based.
The subject of data set [1] is Primary cultured macrophages. It counts as cell-based. As for the experimental part: FIG. 24 Primary cultured macrophages were incubated with XG-102 (SEQ ID NO: 11) and extensively washed.
The conditions of data set [2]: kept at 4-8° C.
Experimental: Unused diluted material could be stored for up to 7 days if kept at 4-8° C. c) Experimental Procedure
Data set [3] concerns recombinant JNK1, JNK2 and JNK3. The data set is described as follows: Solid phase kinase assay, phosphorylation of c-Jun, ATF2 and Elk1 by recombinant JNKs. As to conditions: GST-Jun (aa 1-73), JNK1, JNK2, JNK3, 0-250 μM dosage study. It counts as biochemical. As for the experimental part:
The effects of the peptides on JNKs-mediated phosphorylation of their target transcription factors were investigated in vitro. Recombinant and non activated JNK1, JNK2 and JNK3 were produced using a TRANSCRIPTION AND TRANSLATION rabbit reticulocyte lysate kit (Promega) and used in solid phase kinase assays with c-Jun, ATF2 and Elk1, either alone or fused to glutathione-S-transferase (GST), as substrates. Dose response studies were performed wherein L-TAT or L-TAT-IB1(s) peptides (0-25 μM) were mixed with the recombinant JNK1, JNK2, or JNK3 kinases in reaction buffer (20 mM Tris-acetate, 1 mM EGTA, 10 mM p-nitrophenyl-phosphate (pNPP), 5 mM sodium pyrophosphate, 10 mM p-glycerophosphate, 1 mM dithiothreitol) for 20 minutes. The kinase reactions were then initiated by the addition of 10 mM MgCl2 and 5 pCi ^33P-dATP and 1 μg of either GST-Jun (aa 1-89), GST-AFT2 (aa 1-96) or GST-ELK1 (aa 307-428). GST-fusion proteins were purchased from Stratagene (La Jolla, Calif.).
Ten μL of glutathione-agarose beads were also added to the mixture. Reaction products were then separated by SDS-PAGE on a denaturing 10% polyacrylamide gel. Gels were dried and subsequently exposed to X-ray films (Kodak). […] The ability of D-TAT, D-TAT-IB1(s) and L-TAT-IB1(s) peptides (0-250 μM dosage study) to inhibit GST-Jun (aa 1-73) phosphorylation by recombinant JNK1, JNK2, and JNK3 by were analyzed as described above. […]

For the next data set, the system named is TC-3 cells. The data set is described as follows: Cellular import of fluorescein-labeled TAT and TAT-IB1(s) peptides. It counts as cell-based. The procedure:
The ability of the L- and D-enantiomeric forms of TAT and TAT-IB1(s) peptides (“TAT-IB peptides”) to enter cells was evaluated. L-TAT, D-TAT, L-TAT-IB1(s), and D-TAT-IB1(s) peptides [SEQ ID NOs: 5, 6, 9 and 12, respectively] were labeled by N-terminal addition of a glycine residue conjugated to fluorescein. Labeled peptides (1 μM) were added to TC-3 cell cultures, which were maintained as described in Example 3. At predetermined times cells were washed with PBS and fixed for five minutes in ice-cold methanol-acetone (1:1) before being examined under a fluorescence microscope. Fluorescein-labeled BSA (1 μM, 12 moles/mole BSA) was used as a control.
Little to no signal was present at 48 hours.
Fluorescent signals from these all-D retro-inverso peptides were still very strong 1 week later, and the signal was only slightly diminished at 2 weeks post treatment.

Data set [4] relates to endogenous JNK in HepG2 cells. The data set is described as follows: AlphaScreen, endogenous IL-1 dependent JNK activity in HepG2 cells. It counts as cell-based. As to conditions: FIG. 3 panel d. As for the experimental part:
HepG2 cells were seeded at 3,000 cells/well the day prior the experiment. Then, increasing concentrations of either interleukin-1 [IL-1 beta v)] or tumor necrosis factor [TNFalpha (•)] (a) were added to activate JNK for 30 minutes. Cells were lysed in 20 mM Hepes, 0.5% Tween pH 7.4 and processed for AlphaScreen JNK. (b) Z′ for the JNK activity induced by 10 ng/ml IL-1 and measured in 384 wells/plate (n=96). (c) Inhibition of endogenous IL-1 beta-induced JNK activity with chemical JNK inhibitors [staurosporin (°) and SP600125 (•)]. (d) Effect of peptidic inhibitors L-TAT-IB1(s) according to SEQ ID NO: 9 [here abbreviated as L-JNKi (ν)) and D-TAT-IB1(s) according to SEQ ID NO: 11 (here abbreviated as D-JNKi (♦)) and JBDs (•) (corresponds to L-JNKI without the TAT sequence)] on IL-1 dependent JNK activity. All panels are representative of three independent experiments (n=3). […]
Principle: AlphaScreen is a non-radioactive bead-based technology used to study biomolecular interactions in a microplate format. The acronym ALPHA stands for Amplified Luminescence Proximity Homogenous Assay. […]
Kinase reagents (B-GST-cJun, anti P-cJun antibody and active JNK3) were first diluted in kinase buffer (20 mM Tris-HCl pH 7.6, 10 mM MgCl2, 1 mM DTT, 100 μM Na3VO4, 0.01% Tween-20) and added to wells (15 μl). […] AlphaScreen signal was analyzed directly on the Fusion or En Vision apparatus.

Turning to `CC(C)C[C@@H](NC(=O)[C@@H](Cc1ccccc1)NC(=O)[C@H]1CCCN1C(=O)[C@@H](CCC(N)=O)NC(=O)[C@H](NC(=O)[C@H]1CCCN1C(=O)[C@@H](CCCNC(=N)N)NC(=O)[C@@H](CO)NC(=O)[C@@H](CCC(N)=O)NC(=O)[C@H](N)CC(=O)O)C(C)C)C(=O)N[C@H](CC(N)=O)C(=O)N[C@H](CC(C)C)C(=O)N[C@@H](C(=O)N[C@@H](C(=O)N1CCC[C@@H]1C(=O)N[C@H](CCCNC(=N)N)C(=O)N[C@H](CCCCN)C(=O)N1CCC[C@@H]1C(=O)N[C@H](CCCNC(=N)N)C(=O)N1CCC[C@@H]1C(=O)N1CCC[C@@H]1C(=O)N[C@H](CCCNC(=N)N)C(=O)N[C@H](CCCNC(=N)N)C(=O)N[C@H](CCCNC(=N)N)C(=O)N[C@H](CCC(N)=O)C(=O)N[C@H](CCCNC(=N)N)C(=O)N[C@H](CCCNC(=N)N)C(=O)N[C@H](CCCCN)C(=O)N[C@H](CCCCN)C(=O)N[C@H](CCCNC(=N)N)C(=O)NCC(=O)O)[C@H](C)O)[C@H](C)O` [XG-102], in the data set on murine T cells, the “PMA & ionomycin-induced TNFa and IFNg production” value was “also inhibits cytokine release in primary lymphoid and myeloid cells”. Further, in data set [1], the “incorporation into primary macrophages” value is reported as “strongly incorporated into primary macrophages”. Moreover, in the data set on murine macrophages, the “cytotoxicity at effective concentrations” value is listed as “non-cytotoxic concentrations”. Also, the “LPS-induced TNFa, IL-6 and Rantes release” value in the data set on murine macrophages (murine macrophages) was “reducing LPS-induced TNFa, IL-6 and Rantes release in murine macrophages”. For the same molecule, the “storage of unused diluted material” value in data set [2] was “up to 7 days”. Also, in data set [3], the “efficiency in decreasing JNK-mediated phosphorylation of c-Jun, fold less than L-TAT-IB1(s)” value is on record as 10-20 fold. Further, in the data set with TC-3 cells, the “entry into cells (fluorescence microscopy)” value is “efficiently and rapidly (less than five minutes) entered cells”; the “stability inside the cells” value is “extremely stable inside the cells”. Besides, the “inhibition of IL-1 dependent endogenous JNK activity” value in data set [4] was “effectively inhibits JNK activity, even better than L-TAT-IB1(s)”.
